For 6 cell lines, relative viability results are on record in the supplement of paper PMC10307832.

Common to all, as to assay: relative viability (nuclei count vs DMSO), 5 days (fraction); higher = more cells survive
Compound in the assay “Bleomycin + Crizotinib”: CC1=C(N=C(N=C1N)[C@H](CC(=O)N)NC[C@@H](C(=O)N)N)C(=O)N[C@@H]([C@H](C2=CN=CN2)OC3C(C(C(C(O3)CO)O)O)OC4C(C(C(C(O4)CO)O)OC(=O)N)O)C(=O)N[C@H](C)[C@H]([C@H](C)C(=O)N[C@@H]([C@@H](C)O)C(=O)NCCC5=NC(=CS5)C6=NC(=CS6)C(=O)NCCC[S+](C)C)O [Bleomycin] + C[C@@H](Oc1cc(-c2cnn(C3CCNCC3)c2)cnc1N)c1c(Cl)ccc(F)c1Cl [Crizotinib] (partner 1 µM)
To be noted: main component drawn. In outline:
(§1)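 Nuclei were stained with Hoechst during a one-step fixation (final 0.05% Triton X-100, 1% formaldehyde, 1 ug/ml Hoechst) carried out 5 days after dosing, then counted on 4× images. The cells, lung cancer lines in 1536-well plates, had been dosed by pin tool the day after seeding with one drug alone or a fixed anchor-drug dose plus five library-drug doses (not always all listed) in √10 steps. Relative viability is the nuclei count in treated wells divided by that in vehicle wells, and each value is the median of duplicate plates.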

Compound in the assay “Etoposide + Navitoclax”: COc1cc([C@@H]2c3cc4c(cc3[C@@H](O[C@@H]3O[C@@H]5CO[C@@H](C)O[C@H]5[C@H](O)[C@H]3O)[C@H]3COC(=O)[C@H]23)OCO4)cc(OC)c1O [Etoposide] + CC1(C)CCC(c2ccc(Cl)cc2)=C(CN2CCN(c3ccc(C(=O)NS(=O)(=O)c4ccc(N[C@H](CCN5CCOCC5)CSc5ccccc5)c(S(=O)(=O)C(F)(F)F)c4)cc3)CC2)C1 [Navitoclax] (partner 0.5 µM)
Summed up: as §1

Compound in the assay “Etoposide + Luminespib”: COc1cc([C@@H]2c3cc4c(cc3[C@@H](O[C@@H]3O[C@@H]5CO[C@@H](C)O[C@H]5[C@H](O)[C@H]3O)[C@H]3COC(=O)[C@H]23)OCO4)cc(OC)c1O [Etoposide] + CCNC(=O)c1noc(-c2cc(C(C)C)c(O)cc2O)c1-c1ccc(CN2CCOCC2)cc1 [Luminespib] (partner 0.01 µM)
Summed up:
as §1

Compound in the assay “Etoposide + Dasatinib”: COc1cc([C@@H]2c3cc4c(cc3[C@@H](O[C@@H]3O[C@@H]5CO[C@@H](C)O[C@H]5[C@H](O)[C@H]3O)[C@H]3COC(=O)[C@H]23)OCO4)cc(OC)c1O [Etoposide] + Cc1nc(Nc2ncc(C(=O)Nc3c(C)cccc3Cl)s2)cc(N2CCN(CCO)CC2)n1 [Dasatinib] (partner 0.075 µM)
Summed up: as §1

Consider PC-3 [JPC-3], for which the relative viability in the assay with Bleomycin + Crizotinib (first compound 0.01 µM) worked out at 0.811; with Bleomycin + Crizotinib (first compound 0.03162 µM), 1; in the assay with Bleomycin + Crizotinib (first compound 0.1 µM), 0.872; with Bleomycin + Crizotinib (first compound 0.3162 µM), 0.689; with Bleomycin + Crizotinib (first compound 1 µM), 0.485; in the assay with Etoposide + Navitoclax (first compound 0.01 µM), 0.784. The relative viability with Etoposide + Navitoclax (first compound 0.03162 µM) was found to be 0.825; in the assay with Etoposide + Navitoclax (first compound 0.1 µM), 0.6; with Etoposide + Navitoclax (first compound 0.3162 µM), 0.787; with Etoposide + Navitoclax (first compound 1 µM), 0.703; with Etoposide + Luminespib (first compound 0.01 µM), 0.67; in the assay with Etoposide + Luminespib (first compound 0.03162 µM), 0.717. In addition, the relative viability with Etoposide + Luminespib (first compound 0.1 µM) was 0.549; with Etoposide + Luminespib (first compound 0.3162 µM) it was 0.581; in the assay with Etoposide + Luminespib (first compound 1 µM), 0.371; with Etoposide + Dasatinib (first compound 0.01 µM), 0.915; with Etoposide + Dasatinib (first compound 0.03162 µM), 0.915; with Etoposide + Dasatinib (first compound 0.1 µM), 0.871. In addition, the relative viability with Etoposide + Dasatinib (first compound 0.3162 µM) came out at 0.961; with Etoposide + Dasatinib (first compound 1 µM), 0.927.

For PC-14, the relative viability in the assay with Bleomycin + Crizotinib (first compound 0.01 µM) was found to be 0.578; with Bleomycin + Crizotinib (first compound 0.03162 µM), 0.516; with Bleomycin + Crizotinib (first compound 0.1 µM), 0.259; in the assay with Bleomycin + Crizotinib (first compound 0.3162 µM) it was 0.105; with Bleomycin + Crizotinib (first compound 1 µM) it was 0.0849; with Etoposide + Navitoclax (first compound 0.01 µM), 0.984. Also, the relative viability with Etoposide + Navitoclax (first compound 0.03162 µM) worked out at 1.05; with Etoposide + Navitoclax (first compound 0.1 µM), 1.19; with Etoposide + Navitoclax (first compound 0.3162 µM), 0.906; with Etoposide + Navitoclax (first compound 1 µM), 0.652; with Etoposide + Luminespib (first compound 0.01 µM), 0.112; with Etoposide + Luminespib (first compound 0.03162 µM), 0.172. For the same cell line, the relative viability in the assay with Etoposide + Luminespib (first compound 0.1 µM) came out at 0.143; in the assay with Etoposide + Luminespib (first compound 0.3162 µM), 0.138; with Etoposide + Luminespib (first compound 1 µM) it was 0.151; with Etoposide + Dasatinib (first compound 0.01 µM) it was 0.266; in the assay with Etoposide + Dasatinib (first compound 0.03162 µM), 0.227; in the assay with Etoposide + Dasatinib (first compound 0.1 µM), 0.276. Further, the results for the relative viability with Etoposide + Dasatinib (first compound 0.3162 µM) and with Etoposide + Dasatinib (first compound 1 µM) were 0.217 and 0.151, respectively.

For RERF-LC-KJ, the relative viability was found to be 0.541 with Bleomycin + Crizotinib (first compound 0.01 µM); 0.513 with Bleomycin + Crizotinib (first compound 0.03162 µM); 0.421 in the assay with Bleomycin + Crizotinib (first compound 0.1 µM); 0.23 in the assay with Bleomycin + Crizotinib (first compound 0.3162 µM); 0.197 with Bleomycin + Crizotinib (first compound 1 µM); 0.829 with Etoposide + Navitoclax (first compound 0.01 µM). Also, the relative viability in the assay with Etoposide + Navitoclax (first compound 0.03162 µM) was determined as 0.94; in the assay with Etoposide + Navitoclax (first compound 0.1 µM), 0.957; with Etoposide + Navitoclax (first compound 0.3162 µM), 0.829; with Etoposide + Navitoclax (first compound 1 µM) it was 0.488; with Etoposide + Luminespib (first compound 0.01 µM), 1.16; in the assay with Etoposide + Luminespib (first compound 0.03162 µM) it was 1.2. The relative viability was determined as 1.29 with Etoposide + Luminespib (first compound 0.1 µM); 0.93 with Etoposide + Luminespib (first compound 0.3162 µM); 0.724 with Etoposide + Luminespib (first compound 1 µM); 0.602 in the assay with Etoposide + Dasatinib (first compound 0.01 µM); 0.899 with Etoposide + Dasatinib (first compound 0.03162 µM); 0.707 with Etoposide + Dasatinib (first compound 0.1 µM). For the same cell line, the relative viability with Etoposide + Dasatinib (first compound 0.3162 µM) was found to be 0.73; with Etoposide + Dasatinib (first compound 1 µM), 0.494.

In the case of SK-LU-1, the relative viability in the assay with Bleomycin + Crizotinib (first compound 0.01 µM) was 0.816; in the assay with Bleomycin + Crizotinib (first compound 0.03162 µM), 1.11; with Bleomycin + Crizotinib (first compound 0.1 µM), 0.797; with Bleomycin + Crizotinib (first compound 0.3162 µM), 0.446; with Bleomycin + Crizotinib (first compound 1 µM), 0.428; with Etoposide + Navitoclax (first compound 0.01 µM) it was 0.633. The relative viability with Etoposide + Navitoclax (first compound 0.03162 µM) is 0.975; with Etoposide + Navitoclax (first compound 0.1 µM), 0.468; with Etoposide + Navitoclax (first compound 0.3162 µM), 0.144; with Etoposide + Navitoclax (first compound 1 µM), 0.166; in the assay with Etoposide + Luminespib (first compound 0.01 µM) it was 0.237; in the assay with Etoposide + Luminespib (first compound 0.03162 µM), 0.243. Further, the relative viability in the assay with Etoposide + Luminespib (first compound 0.1 µM) was 0.189; with Etoposide + Luminespib (first compound 0.3162 µM), 0.191; in the assay with Etoposide + Luminespib (first compound 1 µM), 0.183; with Etoposide + Dasatinib (first compound 0.01 µM) it was 0.172; with Etoposide + Dasatinib (first compound 0.03162 µM), 0.177; with Etoposide + Dasatinib (first compound 0.1 µM), 0.172. For the same cell line, the results for the relative viability in the assay with Etoposide + Dasatinib (first compound 0.3162 µM) and with Etoposide + Dasatinib (first compound 1 µM) were 0.14 and 0.122, respectively.

Consider SK-MES-1, for which the relative viability is 0.83 in the assay with Bleomycin + Crizotinib (first compound 0.01 µM); 0.86 with Bleomycin + Crizotinib (first compound 0.03162 µM); 0.753 in the assay with Bleomycin + Crizotinib (first compound 0.1 µM); 0.309 with Bleomycin + Crizotinib (first compound 0.3162 µM); 0.213 with Bleomycin + Crizotinib (first compound 1 µM); 1.14 in the assay with Etoposide + Navitoclax (first compound 0.01 µM). The relative viability with Etoposide + Navitoclax (first compound 0.03162 µM) turned out to be 1.23; with Etoposide + Navitoclax (first compound 0.1 µM), 0.913; in the assay with Etoposide + Navitoclax (first compound 0.3162 µM), 0.532; with Etoposide + Navitoclax (first compound 1 µM) it was 0.211; with Etoposide + Luminespib (first compound 0.01 µM), 0.695; in the assay with Etoposide + Luminespib (first compound 0.03162 µM), 0.64. In addition, the relative viability in the assay with Etoposide + Luminespib (first compound 0.1 µM) came out at 0.733; with Etoposide + Luminespib (first compound 0.3162 µM), 0.357; with Etoposide + Luminespib (first compound 1 µM) it was 0.231; with Etoposide + Dasatinib (first compound 0.01 µM) it was 0.315; in the assay with Etoposide + Dasatinib (first compound 0.03162 µM) it was 0.388; with Etoposide + Dasatinib (first compound 0.1 µM) it was 0.429. Further, the relative viability with Etoposide + Dasatinib (first compound 0.3162 µM) worked out at 0.286; with Etoposide + Dasatinib (first compound 1 µM) it was 0.131.

In the case of SW 1573, the relative viability came out at 0.713 with Bleomycin + Crizotinib (first compound 0.01 µM); 0.604 with Bleomycin + Crizotinib (first compound 0.03162 µM); 0.711 with Bleomycin + Crizotinib (first compound 0.1 µM); 0.402 in the assay with Bleomycin + Crizotinib (first compound 0.3162 µM); 0.227 with Bleomycin + Crizotinib (first compound 1 µM); 0.926 with Etoposide + Navitoclax (first compound 0.01 µM). Also, the relative viability in the assay with Etoposide + Navitoclax (first compound 0.03162 µM) turned out to be 0.946; with Etoposide + Navitoclax (first compound 0.1 µM) it was 0.639; in the assay with Etoposide + Navitoclax (first compound 0.3162 µM), 0.209; with Etoposide + Navitoclax (first compound 1 µM) it was 0.0658; in the assay with Etoposide + Luminespib (first compound 0.01 µM) it was 0.131; with Etoposide + Luminespib (first compound 0.03162 µM), 0.164. Besides, the relative viability with Etoposide + Luminespib (first compound 0.1 µM) came out at 0.355; in the assay with Etoposide + Luminespib (first compound 0.3162 µM), 0.152; in the assay with Etoposide + Luminespib (first compound 1 µM) it was 0.0996; with Etoposide + Dasatinib (first compound 0.01 µM) it was 0.43; with Etoposide + Dasatinib (first compound 0.03162 µM), 0.525; in the assay with Etoposide + Dasatinib (first compound 0.1 µM), 0.212. Besides, the relative viability with Etoposide + Dasatinib (first compound 0.3162 µM) was found to be 0.155; with Etoposide + Dasatinib (first compound 1 µM), 0.0993.
